Patent US20060257535A1, “Milk mineral compositions for use with raw meat products” (Glanbia Nutritionals (Ireland) Limited, priority 2005, published 2006)

Columns and labels:
[1] = Hunter color redness (a*) measurement
From the text: (§1) Thiobarbituric acid assay (TBA) values and color of ground beef in 80% oxygen modified atmosphere packaging were examined. The additive compositions used for each treatment are identified in Table 3.
(§2) Co., of Troy Ohio) with a 0.60 cm plate and finely ground using a 0.32 cm plate. The MM, vitamin E and STP were manually mixed with the meat. Meat portions of about 130 grams each were placed in vacuum pouches. […] The meat samples were packaged in PVC-wrapped containers in 80% oxygen MAP (gas cylinder containing 80% oxygen and 20% carbon dioxide available from Praxair Distribution of Salt Lake City, Utah) to simulate retail packaging conditions and held for 14 days at 2° C., which is essentially the same as conventional retail packaging for ground beef. Thiobarbituric acid assay (TBA) and color readings were taken after 1, 4, 7 and 14 days.
The Hunter measurement standard uses the following scales: L=lightness, a=green and red and b=blue and yellow. The L*, a* and b* values were measured using a Hunter Lab Miniscan portable colorimeter (Reston, Va.), standardized using a white and black standard tile. The hue angle was calculated using the formula: hue angle=tan^−1(b*/a*).
Larger hue angles are associated with less red color, where hue angle=0 is red and hue angle=90 is yellow. The raw samples were scored for color, where 1=purple, 2=reddish purple, 3=bright red, 4=tan and 5=brown.

[2] = Thiobarbituric acid reactive substances (TBARS/TBA) assay of oxidative rancidity; conditions: for TBA value: mean for entire 14 day study period, 80% oxygen MAP, 2° C
From the text: as §1, §2
[…]. Oxidation of fat-containing foods leads to the formation of malondialdehyde or derivates of this compound. […]. Duplicate samples (0.5 g) were mixed with 2.5 ml of solution containing 0.375% TBA (Sigma Chem. Co. of St. Louis, Mo.), 15% trichloroacetic acid (TCA) (Mallinckrodt Baker, Inc. of Paris, Ky.) and 0.25 N hydrochloric acid (HCl). The samples were heated for 10 minutes in a boiling water bath (100° C.) to develop a pink color, cooled in tap water and centrifuged (Sorvall Instruments, Model RC 5C, DuPont, Wilmington, Del.) at 6000 rpm for 10 minutes. The absorbance of the supernatant was measured spectrophotometrically (Spectronic 21D, Milton Roy, Rochester, N.Y.) at 532 nm against a blank that contained all of the reagents minus the meat. The malonaldehyde (MDA) concentration was calculated using an extinction coefficient of 1.56×10^5 M-cm^−1. The MDA concentration was converted to TBA number (mg MDA/kg sample) according to Equation (I): [formula] or to TBA number (parts per million) according to Equation (II): TBA number (ppm)=Sample A532×2.77 (II)
Samples were taken from the exterior surface and the interior portions of the meat and analyzed for rancidity using TBA analysis.

Molecule | red color compared with 0.25% STP and controls ([1]; 0.5% STP, after 14 days, FIG. 2b) | color stability of raw ground beef ([1]; MM more than STP) | TBA values ([2]; 0.25% STP and 0.5% STP, 7 and 14 days following packaging, FIG. 1b) | TBA values compared with control ([2]; 0.25% and 0.5% STP, 14 days following packaging) | TBA values compared with 0.25% STP treatment group ([2]; 0.5% STP, 14 days) | TBA value ([2]; STP 0.25% by weight of meat) [b] | TBA value ([2]; STP 0.5% by weight of meat) [c] | TBA values ([2]; higher level of STP (0.5%), after 14 days of storage) | TBA values (effectiveness compared with 0.5% STP) ([2]; lower level of STP (0.25%), after 14 days of storage) | TBA values compared with treatments with vitamin E ([2]; p<0.05) | a* values ([1]; highest level of vitamin E in ethanol, by 14 days) | red color compared with controls ([1]; vitamin E in mineral oil, after 7 days) | red color compared with control ([1]; vitamin E in oil or in ethanol, FIG. 2c, 2d) | TBA value ([2]; Vit E 50 ppm in ethanol) [a] | TBA value ([2]; Vit E 50 ppm in mineral oil) [a] | TBA value ([2]; Vit E 100 ppm in ethanol) [a] | TBA value ([2]; Vit E 100 ppm in mineral oil) [a] | TBA values compared with control ([2]; both vitamin E preparations (mineral oil, ethanol)) | antioxidant effects (TBA values) ([2]; vitamin E in mineral oil or in ethanol, FIG. 1c, 1d)
O=P(O)(O)OP(=O)(O)OP(=O)(O)O [STP, sodium tripolyphosphate] | significantly more red color | dramatically increased | low TBA values | significantly lower | significantly lower | 0.65 | 0.33 | less than 1 | not as effective | lower |  |  |  |  |  |  |  |  | 
vitamin E [Vit E] |  |  |  |  |  |  |  |  |  |  | lowest a* values | significantly less red in color than the controls | did not exhibit any more red color than control samples | 1.67 | 1.71 | 1.61 | 1.74 | not significantly different from the control | no antioxidant effects
